Results reported in US20140142180A1, “METHODS OF TREATING TUMORS HAVING ELEVATED MCT1 EXPRESSION” (Whitehead Institute for Biomedical Research, priority 2012, published 2014).

What was measured:
Type in all cases: cell-based, human
[1] = test system: MT-3 cells; experiment: Cell survival assay, MT-3; settings: MT-3, increased MCT1 level
Description: Cell lines (5,000-20,000) were seeded in 96-well plates and treated with indicated amounts of 3-BrPA. After 3 days of treatment, CellTiter-Glo (Promega) and/or CyQuant (Invitrogen) were used to measure survival percentage for each concentration compared to untreated cells. FACS analysis with Annexin V and 7AAD staining was performed according to manufacturer's manual (BD Pharmingen).

[2] = test system: parental KBM7 cells; experiment: Luciferase-based ATP assay, parental KBM7 cells; settings: 30 min treatment
Description: The bioenergetic profiles of KBM7 and MDA-MB-231 cells in response to 3-BrPA were determined using a Seahorse Bioscience XF24 Extracellular Flux Analyzer (Seahorse Bioscience). For the indicated experiments, 250,000 KBM7 or 40,000 MDA-MB-231 cells seeded in Seahorse tissue culture plates using unbuffered RPMI (10 mM Glucose). KBM7 cells were attached to the plates using CellTak (Clontech) one hour prior to the start of the experiment. For AUC (area under the curve) OCR and ECAR measurements, three consecutive readings were performed for each cell line. For experiments where 3-BrPA is used, after 3 consecutive readings, 50 μM 3-BrPA was injected through port A and ECAR and OCAR levels were measured. Lactate production was measured as described previously^50. For ATP assays, 20,000 cells were seeded and treated for 30 min with indicated amounts of 3-BrPA and ATP levels were determined using a luciferase-based assay (Promega). For metabolite measurements, 10 million wild type and MCT1 null KBM7 cells were cultured for 1 hour in presence of 50 μM 3-BrPA before metabolite extraction. Then, cells were rapidly washed three times with cold PBS, and then metabolites were extracted by addition of 80% ice-cold methanol followed after incubation on dry ice for 15 min. Endogenous metabolite profiles were obtained using LC-MS as described^51. Metabolite levels (n=3) were normalized to cell number.

[3] = test system: AMPK and ACC phosphorylation; experiment: Immunoblot of AMPK and ACC phosphorylation, wild type KBM7 cells; settings: 50 μM 3-BrPA

O=C(O)C(=O)CBr [3-BrPA, 3-bromopyruvic acid]
sensitivity to 3-BrPA [1]: sensitive | total ATP levels [2]: substantial decrease | AMPK and ACC phosphorylation, markers of energy stress [3]: robustly increasing
